What follows are compounds tested on Human eosinophils (assay: Human eosinophil chemotaxis). Conditions: compound concentration not given.
Type: cell-based
Procedure: Human Eosinophil Chemotaxis
Human eosinophils were isolated from EDTA anticoagulated peripheral blood as previously described (Hansel et al., J. Immunol. Methods, 1991, 145, 105-110). The cells were resuspended at 10×10^6 ml^−1 in RPMI containing 200 IU/ml penicillin, 200 μg/ml streptomycin sulphate and supplemented with 10% HIFCS, at room temperature.
Eosinophils (700 μl) were pre-incubated for 15 mins at 37° C. with 7 μl of either vehicle or compound (100× required final concentration in 10% DMSO). The chemotaxis plate (ChemoTx, 3 μm pore, Neuroprobe) was loaded by adding 28 μl of a concentration of eotaxin (0.1 to 100 nM) containing a concentration of a compound according to the Examples or solvent to the lower wells of the chemotaxis plate. The filter was then placed over the wells and 25 μl of eosinophil suspension were added to the top of the filter. The plate was incubated for 1 hr at 37° C. in a humidified incubator with a 95% air/5% CO2 atmosphere to allow chemotaxis.
The medium, containing cells that had not migrated, was carefully aspirated from above the filter and discarded. The filter was washed once with phosphate buffered saline (PBS) containing 5 mM EDTA to remove any adherent cells. […] The number of eosinophils migrating was quantified according to the method of Strath et al., J. Immunol. […]

| SMILES | % Inhibition (3 nM Human Eotaxin) [%] |
| --- | --- |
| O=C(O)C(c1ccccc1)N1CCCC(CN2CCC(Oc3ccc(Cl)c(Cl)c3)CC2)C1 (single isomer, unassigned) [Example 5, 3-[[4-(3,4-dichlorophenoxy)-1-piperidinyl]methyl]-alpha-phenyl-1-piperidineacetic acid] | 96.9 |
| O=C(O)[C@@H](c1ccccc1)N1CCO[C@H](CN2CCC(Oc3ccc(Cl)c(Cl)c3)CC2)C1 [Example 2, (α^4R,2R)-2-[[4-(3,4-dichlorophenoxy)-1-piperidinyl]methyl]-α-phenylmorpholineacetic acid] | 96.4 |

These compounds were tested against T1, human H1 receptor (Homo sapiens, UniProt P35367) (assay: Histamine H1 receptor binding, [3H]-pyrilamine displacement). Conditions: 1 nM [3H]-pyrilamine; membranes of recombinant CHO-1 cells expressing human H1 receptor; read-out: H1 antagonism pKi (converted).
T1 construct: purchased Euroscreen SA, Brussels, Belgium ES-390-M; host or cells: recombinant CHO-1 cells (membranes)
T1 sequence (P35367 whole entry): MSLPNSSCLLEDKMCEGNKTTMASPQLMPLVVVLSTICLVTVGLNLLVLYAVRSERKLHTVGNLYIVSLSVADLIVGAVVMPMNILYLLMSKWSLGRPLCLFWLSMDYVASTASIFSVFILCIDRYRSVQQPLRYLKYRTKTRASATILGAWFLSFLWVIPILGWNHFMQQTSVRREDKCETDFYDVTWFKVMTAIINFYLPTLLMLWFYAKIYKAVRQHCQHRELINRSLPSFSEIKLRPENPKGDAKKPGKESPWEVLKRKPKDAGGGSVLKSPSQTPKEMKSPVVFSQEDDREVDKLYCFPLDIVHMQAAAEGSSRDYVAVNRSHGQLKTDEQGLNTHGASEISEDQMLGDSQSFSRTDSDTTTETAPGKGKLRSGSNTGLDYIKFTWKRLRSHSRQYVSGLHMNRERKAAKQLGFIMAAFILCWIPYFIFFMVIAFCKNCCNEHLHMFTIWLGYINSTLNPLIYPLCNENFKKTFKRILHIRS

| Ki [nM] | SMILES |
| --- | --- |
| 631 | Cc1cc(Cl)ccc1OC1CCN(CC2CN(C(C(=O)O)c3ccccc3)CCO2)CC1 (single isomer, unassigned) [Example 7] |
| 126 | Cc1cc(Cl)ccc1OC1CCN(CC2CN(C(C(=O)O)c3ccccc3)CCO2)CC1 (single isomer, unassigned) [Example 8] |
| 316 | Cc1c(Cl)ccc(OC2CCN(CC3CN(C(C(=O)O)c4ccccc4)CCO3)CC2)c1Cl (single isomer, unassigned) [Example 9] |
| 794 | Cc1c(Cl)ccc(OC2CCN(CC3CN(C(C(=O)O)c4ccccc4)CCO3)CC2)c1Cl (single isomer, unassigned) [Example 10] |
| 251 | Cc1c(Cl)ccc(OC2CCN(CC3CN(C(C(=O)O)c4ccccc4)CCO3)CC2)c1Cl (single isomer, unassigned) [Example 11] |
| 31.6 | Cc1c(Cl)ccc(OC2CCN(CC3CN(C(C(=O)O)c4ccccc4)CCO3)CC2)c1Cl (single isomer, unassigned) [Example 12] |
| 31.6 | O=C(O)c1ccccc1CN1CCO[C@H](CN2CCC(Oc3ccc(Cl)c(Cl)c3)CC2)C1 [Example 13, 2-[[(2R)-2-[[4-(3,4-dichlorophenoxy)-1-piperidinyl]methyl]-4-morpholinyl]methyl]-benzoic acid] |
| 25.1 | O=C(O)c1ccccc1N1CCO[C@H](CN2CCC(Oc3ccc(Cl)c(Cl)c3)CC2)C1 [Example 15, 2-[(2R)-2-[[4-(3,4-dichlorophenoxy)-1-piperidinyl]methyl]-4-morpholinyl]-benzoic acid] |
